The text below walks through data of patent US11168287B2, “Anti-adherent compositions and methods of inhibiting the adherence of microbes to a surface” (Kimberly-Clark Worldwide, Inc., priority 2016, dated 2021).

The subject of one experiment is S. aureus ATCC 6538. In words: High Throughput Attachment Test Method (bacterial attachment to MBEC pegs), S. aureus. It counts as cell-based, Staphylococcus aureus. Conditions: pegs coated with compound in 5% glycerin and QS water; Con. Wt. %: #1,4,5,6 = 5; #2,3 = 2; #7,8,9 = 100; 15 min bacterial challenge. As for the experimental part:
(§1) Anti-adherent compositions including anti-adherent agents as discussed herein were tested against bacteria using the High Throughput Attachment Test Method. The High Throughput Attachment Test Method is discussed in further detail below. The anti-adherent compositions including the anti-adherent agents were tested against Gram-positive Staphylococcus aureus, and Gram-negative Escherichia coll. The pH of the compositions for this testing between 3 to 10 pH, or about 4 to about 8 pH.
(§2) This test method specifies the operational parameters required to grow and or prevent the formation of bacterial attachment using a high throughput screening assay. The assay device consists of a plastic lid with ninety-six (96) pegs and a corresponding receiver plate with ninety-six (96) individual wells that have a maximum 200 μL working volume. Biofilm is established on the pegs under static batch conditions (i.e., no flow of nutrients into or out of an individual well).
(§3) 6.1.1 E. coli ATCC 11229 and S. aureus ATCC 6538 are the organisms used in this test.
(§4) 6.1.5 Incubate flask at 35±2° C. and 175±10 rpm for 16 to 18 hours (E. coli and S. aureus). Viable bacterial density should be 10^9 CFU/mL and should be checked by serial dilution and plating.
(§5) 6.1.6 Pipette 10 mL from the incubation flask of E. coli and S. aureus into a 50 mL conical tube and spin down at 5 minutes at 4,000×g. Then remove supernatant and Resuspend in 10 mL sterile PBS. Approximate cell density should be 10^7-10^9 CFU/mL. Vortex the sample for approximately 30 seconds to achieve a homogeneous distribution of cells.
(§6) 6.2.1.1.1 Using a positive displacement pipette aseptically add 200 μL of compounds and control to be tested to a sterile 96-well microplate according to the plate layout of Table 4 below.
(§7) 6.2.1.1.3 Place the MBEC plate lid, peg side down into the 96-well microplate containing the test compound solutions.
(§8) 6.2.1.1.4 Allow the plate to sit at room temperature (25±3° C.) for 2 hours.
(§9) 6.2.1.1.5 Remove the MBEC plate lid and allow the lid to dry at room temperature (25±3° C.) overnight in a laminar flow hood. […]

Another experiment relates to MS2. The experiment is described as follows: High Throughput Test to Quantify the Attachment of Phage to a Surface, RNA virus MS2. The conditions noted are these: for MS2 Percent Reduct. (%) / MS2 Log R (PFU/mL) compared to growth controls: pegs coated with compound in 5% glycerin and QS water, Con. Wt. %: #1,4,5,6 = 5, #2,3 = 2, #7,8,9 = 100, 1 hour phage contact; for MS2 Log R (PFU/mL) compared to growth controls: positive = inhibits attachment; for Effect against RNA viruses (MS2), in words: positive logarithmic reduction at statistically significant level = anti-adherent. On the procedure:
(§10) The anti-adherent compositions that inhibit the attachment of RNA and/or DNA viruses to a surface including compounds serving as anti-adherent agents against RNA and DNA viruses were tested against RNA and DNA viruses via the High Throughput Test to Quantify the Attachment of Phage to a Surface, as discussed in detail below. Tables 2 and 3 below show the variety of compounds that were tested as agents in a composition, as well as the results that related to the percent reduction in viruses and the Logarithmic Reduction compared to growth controls. As will be discussed in further detail below in the discussion regarding the High Throughput Test to Quantify the Attachment of Phage to a Surface, a positive logarithmic reduction in viruses equates to anti-adherent properties (e.g., inhibits attachment), and a negative logarithmic reduction in viruses equates to adherent properties (e.g., increases attachment).
The RNA virus that the compositions were tested against for attachment behaviors was MS2. Bacteriophage are commonly utilized as surrogates of mammalian viruses in both medical and virology applications. MS2 phage is commonly utilized as a viral surrogate because of its size, morphology, environmental stability, non-human infectivity, and the ability for use in high throughput assays. Additionally, MS2 is commonly used as a surrogate to study the spread of human Norovirus (See, Tung-Thompson, et al, PLoS One, 2015, 10(8): e0134277, Dawson D J, et al, J App Micro, 2005, 98: 203-209, Jones, et al, J Hosp Infect, 1991, 17:279-85). The use of MS2 phage in hand sanitizer studies makes it an ideal surrogate to study the interaction of personal care products and viral attachment. It is believed that compositions including the adherent agents noted above would act in a substantially similar behavior to other RNA viruses as they did against MS2.
(§11) 1.5 Phage (MS2 and PhiX 174) Enumeration: • 1.5.1 Phage is prepared for use from the stock by diluting 1:1 in BPB. • 1.5.2 Spot Plate Method: • 1.5.2.1 A cell dilution of ˜10^6 CFU/mL of E. coli (E. coli K12 is used for MS2 phage and E. coli C is used for PhiX 174) is prepared from the prepared washed broth culture by diluting in sterile BPB. • 1.5.2.2 An inoculum check is performed on the bacterial dilution in triplicate. • 1.5.2.3 In a 96 well plate, columns 1-12 are filled with 180 μL of the 10^6 CFU/ml E. coli suspension in BPB • 1.5.2.4 20 μL of the samples to be diluted is added in column 1. • 1.5.2.5 10-fold (10×Dilution) in BPB is performed from 10^1-10^12 by moving 20 μL from column 1 to column 2 and mixing. This is repeated, moving down the columns until column 12. • 1.5.2.6 20 μL (or 10 if agar permits) is spot plated on a large labelled OSA plate (spot plate every second column to avoid cross merging of spot plated phages. • 1.5.2.7 Plates are inverted & incubated for 24 h at 37° C. • 1.5.2.8 After 24 h the number of PFU is counted.
(§12) • 1.6.1 Preparation of compounds and coating compounds onto MBEC plate lid • 1.6.2 Using a positive displacement pipette aseptically add 200 μL of compounds to be tested to a sterile 96-well microplate according to the plate layout described below. • 1.6.3 Add 200 μL of each code to the appropriate well for sterility controls. • 1.6.4 Place the MBEC plate lid, peg side down into the 96-well microplate containing the test compound solutions. • 1.6.5 Allow the plate to sit at room temperature (25±3° C.) for 2 hrs. • 1.6.6 Remove the MBEC plate lid and allow the lid to dry at room temperature (25±3° C.) overnight in a laminar flow hood by spacing the MBEC plate lid from the MBEC plate trough with two 10 μL disposable loops. […]

In the next experiment the test system is Phi X 174. The experiment is described as follows: High Throughput Test to Quantify the Attachment of Phage to a Surface, DNA virus Phi X 174. More on the design: species or system Phi X 174 bacteriophage. The conditions noted are these: for Phi X 174 Percent Reduct. (%) / Phi X 174 Log. R (PFU/mL) compared to growth controls: pegs coated with compound in 5% glycerin and QS water, Con. Wt. %: #1,4,5,6 = 5, #2,3 = 2, #7,8,9 = 100, 1 hour phage contact; for Phi X 174 Log. R (PFU/mL) compared to growth controls: positive = inhibits attachment; for Effect against DNA viruses (Phi X 174), in words: positive logarithmic reduction at statistically significant level = anti-adherent. On the procedure: as §10
The DNA virus that the compositions were tested against for attachment behaviors was Phi X 174. Bacteriophage are commonly utilized as surrogates of mammalian viruses in both medical and virology applications. Phi X 174 is commonly utilized as a viral surrogate because of its size, morphology, environmental stability, and non-human infectivity, and the ability for use in high throughput assays. Phi X174 has been previously been used to study barrier efficacy, making it an ideal surrogate to study attachment to a surface (See, Haman and Nelson, Am J Infect Control, 1993, 21:289-96, O'Connell, et al, Clin Microb Infect, 2004, 10:322-6, ASTM F1671/F1671M-13, Standard Test Method for Resistance of Materials Used in Protective Clothing to Penetration by Blood-Borne Pathogens Using Phi X174 Bacteriophage Penetration as a Test System). Thus, it is well accepted by those of ordinary skill in the art that Phi X 174 serves as a surrogate for other DNA viruses, and the compositions including the adherent agents noted above would act in a substantially similar behavior to other DNA viruses as they did against Phi X 174.
as §11, §12

The test system of the next experiment is E. coli ATCC 11229. The experiment is described as follows: High Throughput Attachment Test Method (bacterial attachment to MBEC pegs), E. coli. It counts as cell-based, Escherichia coli. The conditions noted are these: pegs coated with compound in 5% glycerin and QS water; Con. Wt. %: #1,4,5,6 = 5; #2,3 = 2; #7,8,9 = 100; 15 min bacterial challenge. On the procedure: as §1, §2, §3, §4, §5, §6, §7, §8, §9

Consider `CCCCCCCCCCCCCCCCCC(=O)OCC(CC)CCCC` (stereo not shown) [Compound 7, Ethylhexyl Stearate], for which the “Ratio of S. aureus growth on treated pegs to untreated pegs (%)” value (“Ratio of S. aureus growth … (%)” for short) in the experiment on S. aureus ATCC 6538 is reported as 68.6%. In addition, in the experiment on MS2, the “MS2 Percent Reduct. (%)” value came out at 87.46%; the “MS2 Log R (PFU/mL) compared to growth controls” value amounted to 0.90 PFU/mL; the “Effect against RNA viruses (MS2), in words” value is “anti-adherent”. In the experiment on Phi X 174, the “Phi X 174 Percent Reduct. (%)” value is recorded as 98.58%; the “Phi X 174 Log. R (PFU/mL) compared to growth controls” value came out at 1.85 PFU/mL; the “Effect against DNA viruses (Phi X 174), in words” value is “anti-adherent”. In addition, the “Ratio of E. coli growth on treated pegs to untreated pegs (%)” value (“Ratio of E. coli growth … (%)” below) with E. coli ATCC 11229 was 48.4%.

On to `CCCCC(CC)COC(=O)c1ccccc1O` (stereo not shown) [Compound 8, Ethylhexyl Salicylate], for which, in the experiment with S. aureus ATCC 6538, the “Ratio of S. aureus growth … (%)” value turned out to be 75.4%. In the experiment with MS2, the “MS2 Percent Reduct. (%)” value turned out to be 85.40% and the “MS2 Log R (PFU/mL) compared to growth controls” value is listed as 0.84 PFU/mL. In addition, in the experiment on Phi X 174, the “Phi X 174 Percent Reduct. (%)” value is 91.45% and the “Phi X 174 Log. R (PFU/mL) compared to growth controls” value is reported as 1.07 PFU/mL. In addition, in the experiment on E. coli ATCC 11229, the “Ratio of E. coli growth … (%)” value was determined as 111.1%.

As to `CCCCC(CC)COC(=O)C(C#N)=C(c1ccccc1)c1ccccc1` (stereo not shown) [Compound 9, Octocrylene], in the experiment with S. aureus ATCC 6538, the “Ratio of S. aureus growth … (%)” value worked out at 81.9%. In the experiment on MS2, the “MS2 Percent Reduct. (%)” value was −30.27%; the “MS2 Log R (PFU/mL) compared to growth controls” value is listed as −0.11 PFU/mL; the “Effect against RNA viruses (MS2), in words” value is given as “neutral”. In addition, in the experiment on Phi X 174, the “Phi X 174 Percent Reduct. (%)” value is on record as 93.44%; the “Phi X 174 Log. R (PFU/mL) compared to growth controls” value came out at 1.18 PFU/mL; the “Effect against DNA viruses (Phi X 174), in words” value is on record as “anti-adherent”. Further, in the experiment on E. coli ATCC 11229, the “Ratio of E. coli growth … (%)” value is on record as 114.1%.
